Where two headings read alike, the source gives them in different places. Bounds are passed on as bounds.

Common to all, as to assay type: cell-based
One series deals with HIV-1 strain IIIB. The experiment in a line: Anti-HIV-1 luciferase indicator assay in MT2 cells, IIIB. The settings on record: for IC50: Human immunodeficiency virus 1, IIIB; for TI / Safety Index (CC50/IC50): MT2 cells. Here is the method: (§1) Compound was dissolved in DMSO to make 30 mM stock. Then the 30 mM stock is further diluted to 4 mM using DMSO. The 4 mM stock was used as the top concentration to carry out an 11-point, 3-fold dilution scheme using DMSO in a 96-well plate to make the compound dose plate. Compounds in the dose plate were transferred to a new 96-well plate (working plate) containing PBS with 0.05% pluronic acid. From this working plate, the compound solution was transferred to the 384-well assay plates.
(§2) Control compounds used in compound control wells were prepared and added to assay plates individually.
(§3) MT2 cells were mixed with HIV-1 strain NL4-3 (or IIIB, or CNHN24) and the cell/virus mixture was added to the aforementioned antivirus assay plates. After incubation in a 37° C., 5% CO2 incubator, the supernatant from the assay plate was transferred to a new 384-well plate containing the indicator cells with a fire fly luciferase gene under HIV-1 LTR control. The expression level of luciferase was related to HIV-1 infectivity and was measured by Bright-Glo kit (Promega).
(§4) Therapeutic index (TI) was determined by taking ratio of CC50/IC50

Another series has as its system HIV-1 strain CNHN24. The experiment in a line: Anti-HIV-1 luciferase indicator assay in MT2 cells, CNHN24. Particulars: for TI / Safety Index (CC50/IC50): MT2 cells. Here is the method: as §1, §2, §3, §4
For a further series, the system named is HIV-1 strain NL4-3. The experiment in a line: Anti-HIV-1 luciferase indicator assay in MT2 cells, NL4-3. Particulars: viral strain NL4-3; for IC50: Human immunodeficiency virus 1, NL43, MT2, MT2 cells; for TI / Safety Index (CC50/IC50): MT2 cells. As for the experimental part: as §1, §2, §3, §4
Another series in a line: in vitro. Particulars: human, CC50. Here is the method: as §1
For cytotoxicity assay the same amount of MT2 cells as in antivirus assay but without HIV-1 virus were added to the cytotoxicity plates. The cytotoxicity was measured by Cell Titer-Glo cell viability assay (Promega).

[1] abbreviates: MT2, MT2 cells, viral strain II B, read-out: IC50.
[2] abbreviates: Human immunodeficiency virus 1, MT2, MT2 cells, viral strain CNHN24, read-out: IC50.

Turning to `C=C(C)[C@@H]1CC[C@]2(C(=O)N[C@H]3C[C@@H](C(=O)N4CCCCC4)C3(C)C)CC[C@]3(C)[C@H](CC[C@@H]4[C@@]5(C)CC[C@H](OC(=O)CC(C)(C)C(=O)O)C(C)(C)[C@@H]5CC[C@]43C)[C@@H]12` [Example 12, 4-((1R,3aS,5aR,5bR,7aR,9S,11aR,11bR,13aR,13bR)-3a-((1S,3R)-2,2-dimethyl-3-(piperidine-1-carbonyl)cyclobutylcarbamoyl)-5a,5b,8,8,11a-pentamethyl-1-(prop-1-en-2-yl)icosahydro-1H-cyclopenta[a]chrysen-9-yloxy)-2,2-dimethyl-4-oxobutanoic acid], the IC50 (commonly the concentration that gives 50% inhibition) in the series on HIV-1 strain IIIB (setting [1]) came out at 29 nM; in the series with HIV-1 strain CNHN24 (setting [2]), 17 nM; in the series on HIV-1 strain NL4-3 it was 21 nM. Moreover, the “TI / Safety Index (CC50/IC50)” value is given as 227 with HIV-1 strain IIIB (viral strain II B), 383 with HIV-1 strain CNHN24 (viral strain CNHN24) and 316 in the series with HIV-1 strain NL4-3. Also, the CC50 (usually the concentration giving 50% cytotoxicity) in “in vitro” is > 20000 nM.

For the molecule `C=C(C)[C@@H]1CC[C@]2(C(=O)N[C@@H]3CC[C@H](CN4CCC(Cc5ccccc5)CC4)C3)CC[C@]3(C)[C@H](CC[C@@H]4[C@@]5(C)CC[C@H](OC(=O)CCCC(=O)O)C(C)(C)[C@@H]5CC[C@]43C)[C@@H]12` [Example 33, 5-((1R,3aS,5aR,5bR,7aR,9S,11aR,11bR,13aR,13bR)-3a-((1R,3S)-3-((4-benzylpiperidin-1-yl)methyl)cyclopentylcarbamoyl)-5a,5b,8,8,11a-pentamethyl-1-(prop-1-en-2-yl)icosahydro-1H-cyclopenta[a]chrysen-9-yloxy)-5-oxopentanoic acid], the IC50 in the series with HIV-1 strain IIIB (setting [1]), in the series with HIV-1 strain CNHN24 (setting [2]) and in the series with HIV-1 strain NL4-3 (read-out: IC50) was 6700 nM each time. Moreover, the “TI / Safety Index (CC50/IC50)” value in the series on HIV-1 strain IIIB (viral strain II B), in the series with HIV-1 strain CNHN24 (viral strain CNHN24) and in the series on HIV-1 strain NL4-3 was 2.98 throughout. The molecule also returned a CC50 in the series “in vitro” of 20000 nM.

In the case of `C=C(C)[C@@H]1CC[C@]2(C(=O)N[C@@H]3CC[C@H](CN4CCN(CC)CC4)C3)CC[C@]3(C)[C@H](CC[C@@H]4[C@@]5(C)CC[C@H](OC(=O)CC(C)(C)C(=O)O)C(C)(C)[C@@H]5CC[C@]43C)[C@@H]12` [Example 36, 4-((1R,3aS,5aR,5bR,7aR,9S,11aR,11bR,13aR,13bR)-3a-((1R,3S)-3-((4-ethylpiperazin-1-yl)methyl)cyclopentylcarbamoyl)-5a,5b,8,8,11a-pentamethyl-1-(prop-1-en-2-yl)icosahydro-1H-cyclopenta[a]chrysen-9-yloxy)-2,2-dimethyl-4-oxobutanoic acid], the IC50 is 4 nM in the series on HIV-1 strain IIIB (setting [1]), 5 nM in the series on HIV-1 strain CNHN24 (setting [2]) and 5 nM in the series on HIV-1 strain NL4-3 (read-out: IC50). The “TI / Safety Index (CC50/IC50)” value in the series on HIV-1 strain IIIB (viral strain II B) came to 5000; in the series with HIV-1 strain CNHN24 (viral strain CNHN24), 4000; in the series on HIV-1 strain NL4-3 it was 4000. The CC50 in “in vitro” was > 20000 nM.

With `C=C(C)[C@@H]1CC[C@]2(C(=O)N3CCN(CC)CC3)CC[C@]3(C)[C@H](CC[C@@H]4[C@@]5(C)CC[C@H](OC(=O)C6CC(C(=O)O)C6(C)C)C(C)(C)[C@@H]5CC[C@]43C)[C@@H]12` (stereo partly drawn) [Example 54, 3-(((1R,3aS,5aR,5bR,7aR,9S,11aR,11bR,13aR,13bR)-3a-(4-ethylpiperazine-1-carbonyl)-5a,5b,8,8,11a-pentamethyl-1-(prop-1-en-2-yl)icosahydro-1H-cyclopenta[a]chrysen-9-yloxy)carbonyl)-2,2-dimethylcyclobutanecarboxylic acid], the results for the IC50 with HIV-1 strain IIIB (setting [1]), with HIV-1 strain CNHN24 (setting [2]) and in the series on HIV-1 strain NL4-3 (read-out: IC50) were 5 nM, 24 nM and 13 nM, respectively. Besides, the “TI / Safety Index (CC50/IC50)” value was 4000 in the series with HIV-1 strain IIIB (viral strain II B), 833 with HIV-1 strain CNHN24 (viral strain CNHN24) and 1538 in the series with HIV-1 strain NL4-3. Moreover, in “in vitro”, the CC50 was > 20000 nM.

For `C=C(C)[C@@H]1CC[C@]2(C(=O)N3CCC(Cc4ccccc4)(C(=O)OCC)CC3)CC[C@]3(C)[C@H](CC[C@@H]4[C@@]5(C)CC[C@H](OC(=O)CC(C)(C)C(=O)O)C(C)(C)[C@@H]5CC[C@]43C)[C@@H]12` [Example 57, 4-((1R,3aS,5aR,5bR,7aR,9S,11aR,11bR,13aR,13bR)-3a-(4-benzyl-4-(ethoxycarbonyl)piperidine-1-carbonyl)-5a,5b,8,8,11a-pentamethyl-1-(prop-1-en-2-yl)icosahydro-1H-cyclopenta[a]chrysen-9-yloxy)-2,2-dimethyl-4-oxobutanoic acid], the IC50 in the series with HIV-1 strain IIIB (setting [1]) was 590 nM; in the series with HIV-1 strain CNHN24 (setting [2]) it was 1070 nM; in the series on HIV-1 strain NL4-3 (read-out: IC50) it was 857 nM. Also, the “TI / Safety Index (CC50/IC50)” value with HIV-1 strain IIIB (viral strain II B) is 33; in the series on HIV-1 strain CNHN24 (viral strain CNHN24), 20; in the series with HIV-1 strain NL4-3, 23. Moreover, the CC50 in “in vitro” was > 20000 nM.

For the molecule `C=C(C)[C@@H]1CC[C@]2(C(=O)N3CCC(CC)(C(=O)OCC)CC3)CC[C@]3(C)[C@H](CC[C@@H]4[C@@]5(C)CC[C@H](OC(=O)CC(C)(C)C(=O)O)C(C)(C)[C@@H]5CC[C@]43C)[C@@H]12` [Example 74, 4-((1R,3aS,5aR,5bR,7aR,9S,11aR,11bR,13aR,13bR)-3a-(4-(ethoxycarbonyl)-4-ethylpiperidine-1-carbonyl)-5a,5b,8,8,11a-pentamethyl-1-(prop-1-en-2-yl)icosahydro-1H-cyclopenta[a]chrysen-9-yloxy)-2,2-dimethyl-4-oxobutanoic acid], the IC50 with HIV-1 strain IIIB (setting [1]) turned out to be 86 nM; with HIV-1 strain CNHN24 (setting [2]), 163 nM; with HIV-1 strain NL4-3 (read-out: IC50) it was 165 nM. For the same molecule, the results for the “TI / Safety Index (CC50/IC50)” value in the series on HIV-1 strain IIIB (viral strain II B), in the series on HIV-1 strain CNHN24 (viral strain CNHN24) and in the series with HIV-1 strain NL4-3 were 90, 47 and 47, respectively. The same molecule came in with a CC50 in the series “in vitro” of 7760 nM.

In the case of `C=C(C)[C@@H]1CC[C@]2(C(=O)N[C@@H]3CC[C@H](CN4CCC(Cc5ccccc5)CC4)C3)CC[C@]3(C)[C@H](CC[C@@H]4[C@@]5(C)CC[C@H](OC(=O)CC(C)(C)CC(=O)O)C(C)(C)[C@@H]5CC[C@]43C)[C@@H]12` [Example 94, 5-((1R,3aS,5aR,5bR,7aR,9S,11aR,11bR,13aR,13bR)-3a-((1R,3S)-3-((4-benzylpiperidin-1-yl)methyl)cyclopentylcarbamoyl)-5a,5b,8,8,11a-pentamethyl-1-(prop-1-en-2-yl)icosahydro-1H-cyclopenta[a]chrysen-9-yloxy)-3,3-dimethyl-5-oxopentanoic acid], the IC50 in the series on HIV-1 strain IIIB (setting [1]) worked out at 19 nM; in the series on HIV-1 strain CNHN24 (setting [2]) it was 26 nM; with HIV-1 strain NL4-3 (read-out: IC50), 23 nM. For the same molecule, the “TI / Safety Index (CC50/IC50)” value in the series with HIV-1 strain IIIB (viral strain II B) was 210; with HIV-1 strain CNHN24 (viral strain CNHN24), 153; in the series on HIV-1 strain NL4-3, 173. Moreover, it took 4000 nM to reach half-maximal cytotoxicity in the series “in vitro” (CC50).

Turning to `C=C(C)[C@@H]1CC[C@]2(C(=O)N[C@@H]3C=C[C@H](CN4CCOCC4)C3)CC[C@]3(C)[C@H](CC[C@@H]4[C@@]5(C)CC[C@H](OC(=O)CC(C)(C)C(=O)O)C(C)(C)[C@@H]5CC[C@]43C)[C@@H]12` [Example 95, 2,2-dimethyl-4-oxo-4-((1R,3aS,5aR,5bR,7aR,9S,11aR,11bR,13aR,13bR)-5a,5b,8,8,11a-pentamethyl-3a-((1S,4R)-4-(morpholinomethyl)cyclopent-2-enylcarbamoyl)-1-(prop-1-en-2-yl)icosahydro-1H-cyclopenta[a]chrysen-9-yloxy)butanoic acid], the IC50 in the series with HIV-1 strain IIIB (MT2) came out at 1 nM; with HIV-1 strain CNHN24 (Human immunodeficiency virus 1, MT2), 3 nM; in the series on HIV-1 strain NL4-3 (read-out: IC50), 4 nM. Besides, the “TI / Safety Index (CC50/IC50)” value came out at 20000 with HIV-1 strain IIIB (viral strain II B) and 5000 in the series on HIV-1 strain NL4-3. In addition, in the series “in vitro”, the CC50 was > 20000 nM.

For the origin of these results see patent publication US9067966B2, “Lupeol-type triterpene derivatives as antivirals” (priority 2009, dated 2015).
